The text below walks through data of PubChem BioAssay (NCI).

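Test compounds were applied to cells in 96-well plates for 48 hours at 5 doses. Here, GI50 denotes the concentration required for 50% inhibition of growth. At the TGI there is no net growth.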 Bounds are passed on as bounds.

Some test systems named below: K-562 leukemia; SN12C renal; HOP-62 NSCLC; ACHN renal; RPMI-8226 leukemia; OVCAR-3 ovarian; PC-3 prostate; UO-31 renal; RXF 393 renal; UACC-257 melanoma.
Assay in all cases: DTP human tumour cell line panel, 48 h

On to `COc1ccc2cn3c4ccc(O)cc4[nH]c(=O)c3c2c1`, for which the GI50 in the experiment on K-562 leukemia is 0.0516 µM; with SN12C renal, 0.267 µM; with HOP-62 NSCLC it was 0.0864 µM; in the experiment on ACHN renal it was 0.0762 µM; in the experiment with RPMI-8226 leukemia, 0.308 µM; in the experiment on OVCAR-3 ovarian, 0.0474 µM. Also, the GI50 was 0.131 µM in the experiment on PC-3 prostate, 0.456 µM in the experiment on UO-31 renal, 0.0447 µM with RXF 393 renal and 8.08 µM in the experiment on UACC-257 melanoma. For the same molecule, the TGI is 4.48 µM in the experiment on K-562 leukemia; 16.2 µM in the experiment with SN12C renal; 17.3 µM in the experiment with HOP-62 NSCLC; 15.9 µM with ACHN renal; 7.93 µM in the experiment with RPMI-8226 leukemia; 7.08 µM in the experiment on OVCAR-3 ovarian. The TGI turned out to be 16.9 µM with PC-3 prostate, 15.1 µM with UO-31 renal, 1.04 µM in the experiment with RXF 393 renal and 24.2 µM with UACC-257 melanoma.

Consider `COc1ccc(C(=O)c2cc(C)c(OC)c(C)c2)c(OC)c1OC(=O)C(Cl)Cl`, for which the GI50 with K-562 leukemia is 0.0336 µM; in the experiment with SN12C renal it was 0.0956 µM; with HOP-62 NSCLC, 0.221 µM; with ACHN renal, 0.0554 µM; in the experiment with RPMI-8226 leukemia, 0.0416 µM; with OVCAR-3 ovarian, 0.0353 µM. Besides, the GI50 in the experiment with PC-3 prostate is 0.0436 µM; with UO-31 renal, 0.0658 µM; in the experiment on RXF 393 renal it was 0.257 µM; in the experiment on UACC-257 melanoma, 25.6 µM. Besides, the TGI is above 100 µM in the experiment with K-562 leukemia; above 100 µM in the experiment on SN12C renal; above 100 µM with HOP-62 NSCLC; above 100 µM in the experiment on ACHN renal; 27.8 µM in the experiment with RPMI-8226 leukemia; above 100 µM in the experiment on PC-3 prostate. For the same molecule, the TGI in the experiment with UO-31 renal is above 50.5 µM; with RXF 393 renal it was above 100 µM; with UACC-257 melanoma, above 100 µM.

As for `CN1CCC(n2cnc(-c3ccc(F)cc3)c2-c2ccnc(Nc3ccccc3)n2)CC1`, the GI50 was 5.94 µM in the experiment on K-562 leukemia; 7.09 µM in the experiment with SN12C renal; 13.1 µM in the experiment with HOP-62 NSCLC; 1.14 µM in the experiment on ACHN renal; above 20.8 µM with RPMI-8226 leukemia; 7.65 µM in the experiment on OVCAR-3 ovarian. For the same molecule, the GI50 with PC-3 prostate was 12.2 µM; with UO-31 renal, 0.969 µM; in the experiment on RXF 393 renal it was 10.5 µM; in the experiment with UACC-257 melanoma, 4.22 µM. Besides, the TGI in the experiment on K-562 leukemia, in the experiment on SN12C renal, in the experiment on HOP-62 NSCLC, in the experiment on ACHN renal, in the experiment on RPMI-8226 leukemia and with OVCAR-3 ovarian was above 25 µM in each case. Besides, the TGI in the experiment on PC-3 prostate is above 25 µM; in the experiment with UO-31 renal, above 11.7 µM; with RXF 393 renal, above 25 µM; in the experiment with UACC-257 melanoma it was 9.25 µM.

For the molecule `N#CC1=C(N)Oc2c(ccc3cccnc23)C1c1ccccc1` (stereo unspecified), the TGI with K-562 leukemia is above 100 µM; in the experiment on SN12C renal, above 100 µM; with HOP-62 NSCLC, above 22.9 µM; in the experiment on ACHN renal, above 100 µM; in the experiment on RPMI-8226 leukemia, 15.1 µM; in the experiment with OVCAR-3 ovarian, 2.95 µM. The TGI with PC-3 prostate is above 100 µM; with UO-31 renal, above 100 µM; in the experiment with RXF 393 renal, above 30.7 µM; with UACC-257 melanoma, above 79.4 µM. Besides, the GI50 in the experiment with RPMI-8226 leukemia is 2.37 µM; in the experiment with PC-3 prostate, 2.8 µM.

For `COc1cc2c3c(n(CCCN=[N+]=[N-])c(=O)c2cc1OC)-c1ccc(NC(C)=O)cc1C3=O`, the GI50 in the experiment on K-562 leukemia, in the experiment with SN12C renal, in the experiment with HOP-62 NSCLC, in the experiment with ACHN renal, with RPMI-8226 leukemia and in the experiment on OVCAR-3 ovarian was above 50 µM in each case. In addition, the GI50 in the experiment on PC-3 prostate is above 50 µM; with UO-31 renal it was 46.2 µM; in the experiment with RXF 393 renal it was above 50 µM; with UACC-257 melanoma it was above 50 µM. The TGI with K-562 leukemia, with SN12C renal, in the experiment on HOP-62 NSCLC, with ACHN renal, in the experiment on RPMI-8226 leukemia and in the experiment with OVCAR-3 ovarian was above 50 µM in each case. Further, the TGI with PC-3 prostate, in the experiment with UO-31 renal, in the experiment on RXF 393 renal and in the experiment on UACC-257 melanoma was above 50 µM in each case.

As to `CCOC(=O)CC1C(CNC(=O)NC)OC(n2cnc3c(NC(=O)Nc4ccccc4)ncnc32)C1O[Si](C)(C)C(C)(C)C` (stereo unspecified), the GI50 in the experiment on K-562 leukemia was 3.59 µM; with SN12C renal it was 9.1 µM; in the experiment with HOP-62 NSCLC, 8.96 µM; with ACHN renal, 8.55 µM; with RPMI-8226 leukemia, 1.09 µM; in the experiment with OVCAR-3 ovarian, 4.59 µM. Also, the GI50 is 2.25 µM in the experiment on PC-3 prostate, 12.1 µM in the experiment on UO-31 renal, 2.01 µM in the experiment on RXF 393 renal and 5.68 µM with UACC-257 melanoma. Besides, the total growth inhibition concentration (TGI) in the experiment on K-562 leukemia is 32.9 µM; in the experiment on SN12C renal, above 100 µM; in the experiment with HOP-62 NSCLC, 26.4 µM; in the experiment on ACHN renal, above 100 µM; with RPMI-8226 leukemia, 4.57 µM; in the experiment on OVCAR-3 ovarian it was 17.2 µM. Further, the TGI is 4.85 µM in the experiment on PC-3 prostate, 29.5 µM in the experiment on UO-31 renal, 4.63 µM with RXF 393 renal and above 100 µM in the experiment on UACC-257 melanoma.

Turning to `CCN(CC)CCOc1ccccc1-n1c(C)ccc1-c1ccccc1`, the GI50 with K-562 leukemia is 10.7 µM; in the experiment on SN12C renal, 15.4 µM; in the experiment with HOP-62 NSCLC, 17 µM; with ACHN renal, 15.5 µM; in the experiment with RPMI-8226 leukemia, 22.9 µM; in the experiment on OVCAR-3 ovarian, 15.6 µM. In addition, the GI50 was 12.4 µM with PC-3 prostate, 10.5 µM in the experiment on UO-31 renal, 5.31 µM with RXF 393 renal and 16.2 µM in the experiment on UACC-257 melanoma. Moreover, the TGI in the experiment on K-562 leukemia was 32 µM; in the experiment with SN12C renal, 30.5 µM; in the experiment with HOP-62 NSCLC it was 31.1 µM; in the experiment on ACHN renal, 30.3 µM; in the experiment on RPMI-8226 leukemia it was 68.7 µM; in the experiment with OVCAR-3 ovarian, 30.1 µM. In addition, the TGI with PC-3 prostate was found to be 29.2 µM; in the experiment on UO-31 renal, 24.4 µM; in the experiment with RXF 393 renal, 20.1 µM; with UACC-257 melanoma it was 31.8 µM.

As to `CN1CCN(c2ccc(NC(=O)c3cncnc3Nc3ccc4c(ccn4Cc4cccc(F)c4)c3)cc2)CC1`, the GI50 in the experiment on K-562 leukemia was 0.55 µM; with SN12C renal, 3.83 µM; with HOP-62 NSCLC, 3.9 µM; in the experiment on ACHN renal, 1.73 µM; in the experiment on RPMI-8226 leukemia it was 0.754 µM; with OVCAR-3 ovarian, 4.08 µM. Moreover, the GI50 in the experiment on PC-3 prostate is 2.06 µM; in the experiment on UO-31 renal, 3.8 µM; in the experiment with RXF 393 renal, 0.707 µM; in the experiment on UACC-257 melanoma, 0.68 µM. Also, the TGI was 1.2 µM in the experiment with K-562 leukemia; 8.15 µM with SN12C renal; 8.84 µM in the experiment on HOP-62 NSCLC; 5.89 µM in the experiment on ACHN renal; 1.79 µM in the experiment with RPMI-8226 leukemia; 8.48 µM with OVCAR-3 ovarian. The TGI in the experiment with PC-3 prostate is 6.74 µM; with UO-31 renal it was 7.83 µM; with RXF 393 renal, 3.77 µM; with UACC-257 melanoma, 1.45 µM.

The term GI50 denotes the concentration that inhibits growth by half. As a reminder, the TGI is the concentration giving total growth inhibition. A high value points to lower sensitivity of the cells.
